Data as given in patent US5733719A, “Method of making an assay compound” (priority 1995, dated 1998).

Experiments:
Grans = assay: Peptidases to distinguish leukemia from non-leukemia, granulocytes; type: cell-based, human; set-up: unit not given here
Description: (§1) Artificial intelligence was used to analyze data of cellular enzyme functions, and determine normal and disease states. Peptidases were used to distinguish leukemia from non-leukemia (output pattern). For input patterns lymphocyte and granulocyte cell types were used with aminopeptidases, cathepsins and dipeptidylpeptidase enzyme activities. In this Example, illustrated in Tables 6A-6C, three normals and three leukemia patients were used as known output patterns for the neural network to learn (in practice, the larger the learning set the more accurate unknown prediction will be). Unknowns were then presented to the learned algorithm as shown in the test case examples. Clinical diagnosis was confirmed by physicians. The trained neural network was able to correctly classify the leukemia from the non-leukemia.

Lymphs = assay: Peptidases to distinguish leukemia from non-leukemia, lymphocytes; type: cell-based, human; set-up: unit not given here
Description: as §1

## NC(=O)CC[C@H](N)C(=O)N[C@@H](CO)C(=O)Nc1ccc2c(c1)Oc1cc(NC(=O)[C@H](CO)NC(=O)[C@@H](N)CCC(N)=O)ccc1C21OC(=O)c2ccccc21 [QS, (H--L--Gln--Ser)2 Rho 110-2TFA]
Grans; J4 11/21/91 acute leuk.
  enzyme activity: 0.22
Grans; J4 12/2/91 AL
  enzyme activity: 0.44
Grans; J4 12/3/91 acute leuk.
  enzyme activity: 0.19
Grans; J5 11/27/91 AML
  enzyme activity: 1.24
Grans; J19 11/27/91 CLL
  enzyme activity: 1.16
Grans; J22 12/2/91 AML
  enzyme activity: 0.10
Grans; J22 12/9/91 AML
  enzyme activity: 0.24
Grans; N99° normal
  enzyme activity: 0.05
Grans; N191 normal
  enzyme activity: 0.19
Grans; N192 normal
  enzyme activity: 0.15
Grans; N193 normal
  enzyme activity: 0.14
Grans; N194 normal
  enzyme activity: 0.07
Grans; N195 normal
  enzyme activity: 0.21
Grans; N197 normal
  enzyme activity: 0.24
Grans; N200 normal
  enzyme activity: 0.06
Grans; N201 normal
  enzyme activity: 0.09
Grans; N202 normal
  enzyme activity: 0.08
Grans; N206 normal
  enzyme activity: 0.27
Grans; P68 tachycardia
  enzyme activity: 0.33
Grans; P69 pancreatic CA
  enzyme activity: 0.37
Grans; P70 cirrhosis/hemobilia
  enzyme activity: 0.19
Grans; P71 ac. pyelonephritis
  enzyme activity: 0.51
Lymphs; J4 11/21/91 acute leuk.
  enzyme activity: 0.05
Lymphs; J4 12/2/91 AL
  enzyme activity: 0.01
Lymphs; J4 12/3/91 acute leuk.
  enzyme activity: 0.06
Lymphs; J5 11/27/91 AML
  enzyme activity: 0.07
Lymphs; J19 11/27/91 CLL
  enzyme activity: 0.06
Lymphs; J22 12/2/91 AML
  enzyme activity: 0.02
Lymphs; J22 12/9/91 AML
  enzyme activity: 0.02
Lymphs; N99° normal
  enzyme activity: 0.02
Lymphs; N191 normal
  enzyme activity: 0.02
Lymphs; N192 normal
  enzyme activity: 0.03
Lymphs; N193 normal
  enzyme activity: 0.03
Lymphs; N194 normal
  enzyme activity: 0.02
Lymphs; N195 normal
  enzyme activity: 0.04
Lymphs; N197 normal
  enzyme activity: 0.06
Lymphs; N200 normal
  enzyme activity: 0.01
Lymphs; N201 normal
  enzyme activity: 0.02
Lymphs; N202 normal
  enzyme activity: 0.01
Lymphs; N206 normal
  enzyme activity: 0.04
Lymphs; P68 tachycardia
  enzyme activity: 0.02
Lymphs; P69 pancreatic CA
  enzyme activity: 0.31
Lymphs; P70 cirrhosis/hemobilia
  enzyme activity: 0.04
Lymphs; P71 ac. pyelonephritis
  enzyme activity: 0.05
